Measured values from ChEMBL document CHEMBL1139267, “Discovery of a potent, selective and orally bioavailable 3,9-diazaspiro[5.5]undeca-2-one CCR5 antagonist” (Bioorg Med Chem Lett, 2009).

What was measured:
[1] = molecular target: C-C chemokine receptor type 5 (Homo sapiens, UniProt P51681); assay: Antagonist activity at CCR5 receptor by radiolabeled RANTES binding assay
[2] = system: Human immunodeficiency virus 1; assay: Antiviral activity against R5 tropic HIV1 BaL infected in human JC53-BL cells expressing CCR5 after 2 days by cell-cell fusion assay; assay type: functional, organism-based; settings: Human immunodeficiency virus 1, BaL, JC53BL, 48 h
[3] = Metabolic stability in human liver microsomes assessed as clearance; assay type: ADME, Microsome
[4] = system: Human immunodeficiency virus 1; assay: Inhibition of R5 tropic HIV1 BaL replication in human PBMC; assay type: functional, organism-based; settings: Human immunodeficiency virus 1, BaL
[5] = molecular target: T1, C-C chemokine receptor type 1 (Homo sapiens, UniProt P32246); assay: Inhibition of CCR1 receptor
T1 sequence (P32246 whole entry): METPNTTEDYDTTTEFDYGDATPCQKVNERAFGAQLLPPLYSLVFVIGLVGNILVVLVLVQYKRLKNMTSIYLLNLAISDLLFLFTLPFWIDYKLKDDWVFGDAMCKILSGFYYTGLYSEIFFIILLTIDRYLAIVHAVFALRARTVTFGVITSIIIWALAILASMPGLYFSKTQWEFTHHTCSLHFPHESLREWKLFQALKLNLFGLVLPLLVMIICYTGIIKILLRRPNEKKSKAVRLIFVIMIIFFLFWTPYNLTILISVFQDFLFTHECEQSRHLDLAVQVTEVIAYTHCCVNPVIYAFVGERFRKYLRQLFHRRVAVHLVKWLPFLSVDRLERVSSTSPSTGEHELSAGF

[6] = molecular target: C-C chemokine receptor type 2 (Homo sapiens, UniProt P41597); assay: Inhibition of CCR2 receptor
C-C chemokine receptor type 2, sequence (P41597 whole entry): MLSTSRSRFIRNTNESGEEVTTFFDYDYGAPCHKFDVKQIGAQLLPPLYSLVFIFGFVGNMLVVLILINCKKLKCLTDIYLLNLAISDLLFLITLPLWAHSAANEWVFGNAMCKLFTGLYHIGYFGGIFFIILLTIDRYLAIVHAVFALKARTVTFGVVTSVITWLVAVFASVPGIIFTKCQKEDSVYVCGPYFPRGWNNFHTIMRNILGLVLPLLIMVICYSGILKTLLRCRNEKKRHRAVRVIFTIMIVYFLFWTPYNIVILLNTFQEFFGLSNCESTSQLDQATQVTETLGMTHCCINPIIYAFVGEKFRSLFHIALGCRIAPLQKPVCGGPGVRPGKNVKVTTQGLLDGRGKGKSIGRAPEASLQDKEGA

[7] = molecular target: T2, C-C chemokine receptor type 3 (Homo sapiens, UniProt P51677); assay: Inhibition of CCR3 receptor
T2 sequence (P51677 whole entry): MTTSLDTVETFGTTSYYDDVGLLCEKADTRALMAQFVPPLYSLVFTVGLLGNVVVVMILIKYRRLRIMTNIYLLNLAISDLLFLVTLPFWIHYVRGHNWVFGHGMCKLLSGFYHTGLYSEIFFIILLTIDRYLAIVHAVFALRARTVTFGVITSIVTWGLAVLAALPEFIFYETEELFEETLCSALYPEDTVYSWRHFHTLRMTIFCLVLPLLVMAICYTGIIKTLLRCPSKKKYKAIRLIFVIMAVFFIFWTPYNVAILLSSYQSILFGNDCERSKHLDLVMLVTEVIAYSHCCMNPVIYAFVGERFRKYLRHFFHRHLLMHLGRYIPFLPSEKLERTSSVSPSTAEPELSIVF

[8] = molecular target: T3, C-C chemokine receptor type 4 (Homo sapiens, UniProt P51679); assay: Inhibition of CCR4 receptor
T3 sequence (P51679 whole entry): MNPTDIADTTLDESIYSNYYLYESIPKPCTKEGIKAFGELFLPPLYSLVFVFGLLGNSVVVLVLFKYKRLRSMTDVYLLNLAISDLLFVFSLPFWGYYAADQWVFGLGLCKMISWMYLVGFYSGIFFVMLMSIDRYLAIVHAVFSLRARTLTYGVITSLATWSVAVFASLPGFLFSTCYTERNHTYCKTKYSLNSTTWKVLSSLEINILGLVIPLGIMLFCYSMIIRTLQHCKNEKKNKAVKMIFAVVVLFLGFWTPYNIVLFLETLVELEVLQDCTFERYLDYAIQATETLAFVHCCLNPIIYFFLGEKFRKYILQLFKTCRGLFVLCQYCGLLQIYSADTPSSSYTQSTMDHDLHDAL

[9] = molecular target: T4, C-C chemokine receptor type 6 (Homo sapiens, UniProt P51684); assay: Inhibition of CCR6 receptor
T4 sequence (P51684 whole entry): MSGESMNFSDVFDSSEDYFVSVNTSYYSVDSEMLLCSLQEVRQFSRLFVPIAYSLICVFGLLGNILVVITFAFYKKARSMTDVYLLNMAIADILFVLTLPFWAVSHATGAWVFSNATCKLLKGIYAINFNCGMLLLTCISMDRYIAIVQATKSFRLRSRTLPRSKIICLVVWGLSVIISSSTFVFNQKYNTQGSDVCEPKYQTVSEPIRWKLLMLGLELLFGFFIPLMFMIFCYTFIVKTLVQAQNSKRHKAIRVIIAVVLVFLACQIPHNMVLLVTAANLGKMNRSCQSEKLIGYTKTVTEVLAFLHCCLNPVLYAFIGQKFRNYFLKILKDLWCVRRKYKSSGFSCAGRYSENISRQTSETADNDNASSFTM

[10] = molecular target: C-X-C chemokine receptor type 4 (Homo sapiens, UniProt P61073); assay: Inhibition of CXCR4 receptor
C-X-C chemokine receptor type 4, sequence (P61073 whole entry): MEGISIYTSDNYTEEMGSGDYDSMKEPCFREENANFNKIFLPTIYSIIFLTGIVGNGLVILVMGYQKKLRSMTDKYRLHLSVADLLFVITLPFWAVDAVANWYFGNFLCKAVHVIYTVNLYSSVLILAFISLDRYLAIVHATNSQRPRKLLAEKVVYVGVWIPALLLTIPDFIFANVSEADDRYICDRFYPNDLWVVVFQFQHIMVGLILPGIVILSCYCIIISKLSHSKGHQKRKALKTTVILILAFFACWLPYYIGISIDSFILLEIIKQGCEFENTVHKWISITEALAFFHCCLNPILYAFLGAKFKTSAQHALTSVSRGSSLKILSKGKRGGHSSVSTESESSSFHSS

[11] = molecular target: hERG (KCNH2) (Homo sapiens, UniProt Q12809); assay: Inhibition of human ERG receptor
hERG (KCNH2), sequence (Q12809 whole entry): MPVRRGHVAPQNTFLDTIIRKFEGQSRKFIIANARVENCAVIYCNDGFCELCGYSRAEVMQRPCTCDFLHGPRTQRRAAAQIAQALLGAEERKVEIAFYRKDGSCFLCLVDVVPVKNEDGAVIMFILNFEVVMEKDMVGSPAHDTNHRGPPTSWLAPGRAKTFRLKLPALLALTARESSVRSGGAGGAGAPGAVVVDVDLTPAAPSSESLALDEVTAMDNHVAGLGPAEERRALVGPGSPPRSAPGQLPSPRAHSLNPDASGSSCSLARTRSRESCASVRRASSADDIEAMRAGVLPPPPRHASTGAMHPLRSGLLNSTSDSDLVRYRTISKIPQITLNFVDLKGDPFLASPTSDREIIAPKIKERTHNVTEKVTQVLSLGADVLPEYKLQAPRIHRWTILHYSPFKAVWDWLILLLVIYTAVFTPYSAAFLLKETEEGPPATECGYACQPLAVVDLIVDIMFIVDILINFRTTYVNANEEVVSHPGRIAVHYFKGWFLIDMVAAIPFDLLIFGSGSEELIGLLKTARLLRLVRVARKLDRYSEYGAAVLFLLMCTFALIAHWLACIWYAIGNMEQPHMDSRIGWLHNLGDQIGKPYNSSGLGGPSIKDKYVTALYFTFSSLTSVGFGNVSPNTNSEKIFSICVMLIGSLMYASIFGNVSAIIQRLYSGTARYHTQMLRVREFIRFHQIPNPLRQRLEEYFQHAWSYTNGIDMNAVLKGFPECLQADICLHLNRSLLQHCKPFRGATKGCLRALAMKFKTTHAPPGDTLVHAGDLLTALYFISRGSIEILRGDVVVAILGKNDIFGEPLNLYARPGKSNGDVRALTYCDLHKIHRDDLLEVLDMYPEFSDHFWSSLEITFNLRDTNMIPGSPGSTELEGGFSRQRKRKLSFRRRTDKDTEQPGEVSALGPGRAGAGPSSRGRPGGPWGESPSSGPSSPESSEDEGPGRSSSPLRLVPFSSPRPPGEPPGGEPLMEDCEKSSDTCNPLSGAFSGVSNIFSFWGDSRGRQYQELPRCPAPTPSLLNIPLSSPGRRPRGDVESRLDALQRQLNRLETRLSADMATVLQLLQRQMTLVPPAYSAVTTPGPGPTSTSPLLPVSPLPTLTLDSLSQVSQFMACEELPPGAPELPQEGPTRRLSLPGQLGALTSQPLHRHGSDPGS

[12] = system: Rattus norvegicus; assay: Tmax in rat at 2 mg/kg, po; assay type: ADME, organism-based; parameters: dose 2 mg/kg, route oral; settings: in vivo
[13] = system: Rattus norvegicus; assay: Cmax in rat at 2 mg/kg, po; assay type: ADME, organism-based; parameters: dose 2 mg/kg, route oral; settings: in vivo
[14] = Half life in rat at 0.5 mg/kg, iv; assay type: ADME, organism-based; parameters: dose 0.5 mg/kg, route intravenous; settings: in vivo
[15] = system: Rattus norvegicus; assay: Half life in rat at 2 mg/kg, po; assay type: ADME, organism-based; parameters: dose 2 mg/kg, route oral; settings: in vivo
[16] = Mean retention time in rat at 0.5 mg/kg, iv; assay type: ADME, organism-based; parameters: dose 0.5 mg/kg, route intravenous; settings: in vivo
[17] = Mean retention time in rat at 2 mg/kg, po; assay type: ADME, organism-based; parameters: dose 2 mg/kg, route oral; settings: in vivo
[18] = AUC in rat at 0.5 mg/kg, iv; assay type: ADME, organism-based; parameters: dose 0.5 mg/kg, route intravenous; settings: plasma
[19] = system: Rattus norvegicus; assay: AUC in rat at 2 mg/kg, po; assay type: ADME, organism-based, Plasma; parameters: dose 2 mg/kg, route oral; settings: in vivo
[20] = Clearance in rat at 0.5 mg/kg, iv; assay type: ADME, organism-based; parameters: dose 0.5 mg/kg, route intravenous; settings: in vivo
[21] = Volume of distribution at steady state in rat at 0.5 mg/kg, iv; assay type: ADME, organism-based; parameters: dose 0.5 mg/kg, route intravenous; settings: in vivo, read-out: Vdss
[22] = Oral bioavailability in rat at 2 mg/kg; assay type: ADME, organism-based; settings: in vivo

C-C chemokine receptor type 5, sequence (P51681 whole entry, the tested form may be a part): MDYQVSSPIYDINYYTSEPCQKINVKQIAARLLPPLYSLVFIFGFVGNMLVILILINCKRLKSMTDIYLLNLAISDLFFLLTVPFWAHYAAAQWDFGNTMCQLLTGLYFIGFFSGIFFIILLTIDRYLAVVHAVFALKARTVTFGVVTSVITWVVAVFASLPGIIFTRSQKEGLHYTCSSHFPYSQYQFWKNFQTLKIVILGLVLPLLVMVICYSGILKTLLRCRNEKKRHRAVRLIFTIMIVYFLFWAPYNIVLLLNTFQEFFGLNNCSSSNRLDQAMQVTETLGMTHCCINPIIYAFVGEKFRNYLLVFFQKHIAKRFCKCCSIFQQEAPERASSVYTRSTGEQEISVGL

## CCCCC1CN(S(C)(=O)=O)CCC12CCN(C1(C)CCN(C(=O)c3c(C)ncnc3C)CC1)CC2 (configuration not stated)
[1]
  IC50: 25 nM
[2]
  IC50: 100 nM
[3]
  microsomal CLint: 7 µL/min/mg

## CCCCC1CN(C(=O)C2CCOCC2)CCC12CCN(C1(C)CCN(C(=O)c3c(C)ncnc3C)CC1)CC2 (configuration not stated)
[1]
  IC50: > 500 nM
[2]
  IC50: > 5000 nM

## CCCCC1CN(S(=O)(=O)N2CCOCC2)CCC12CCN(C1(C)CCN(C(=O)c3c(C)ncnc3C)CC1)CC2 (configuration not stated)
[1]
  IC50: 11 nM
[2]
  IC50: 1 nM
[3]
  microsomal CLint: 276 µL/min/mg

## CCCCC1CN(CC2CCOCC2)CCC12CCN(C1(C)CCN(C(=O)c3c(C)ncnc3C)CC1)CC2 (configuration not stated)
[1]
  IC50: > 500 nM
[2]
  IC50: > 5000 nM

## Cc1ncnc(C)c1C(=O)N1CCC(C)(N2CCC3(CC2)CCN(S(C)(=O)=O)CC3c2ccccc2)CC1 (configuration not stated)
[1]
  IC50: 104 nM
[2]
  IC50: 1900 nM

## CCCCC1C(=O)N(C[C@H]2CC[C@H](OC)CC2)CCC12CCN(C1(C)CCN(C(=O)c3c(C)ncnc3C)CC1)CC2 (some centres not stated)
[1]
  IC50: 37 nM
[2]
  IC50: 6 nM

## CCCCC1CN(C(=O)OC2CCOCC2)CCC12CCN(C1(C)CCN(C(=O)c3c(C)ncnc3C)CC1)CC2 (configuration not stated)
[1]
  IC50: 349 nM
[2]
  IC50: > 5000 nM

## CCCCC1CN(S(=O)(=O)C2CC2)CCC12CCN(C1(C)CCN(C(=O)c3c(C)ncnc3C)CC1)CC2 (configuration not stated)
[1]
  IC50: 22 nM
[2]
  IC50: 7 nM
[3]
  microsomal CLint: 100 µL/min/mg

## CCCCC1C(=O)N(C[C@H]2CC[C@H](O)CC2)CCC12CCN(C1(C)CCN(C(=O)c3c(C)ncnc3C)CC1)CC2 (some centres not stated)
[1]
  IC50: 76 nM
[2]
  IC50: 10 nM

## CCCCC1C(=O)N(CC2CCN(C(=O)OC)CC2)CCC12CCN(C1(C)CCN(C(=O)c3c(C)ncnc3C)CC1)CC2 (configuration not stated)
[1]
  IC50: 60 nM
[2]
  IC50: 8 nM

## CCCCC1CN(S(=O)(=O)c2ccccn2)CCC12CCN(C1(C)CCN(C(=O)c3c(C)ncnc3C)CC1)CC2 (configuration not stated)
[1]
  IC50: 18 nM
[2]
  IC50: 4 nM
[3]
  microsomal CLint: 310 µL/min/mg

## CCCCC1C(=O)N(CC2CCN(CC(F)F)CC2)CCC12CCN(C1(C)CCN(C(=O)c3c(C)ncnc3C)CC1)CC2 (configuration not stated)
[1]
  IC50: 70 nM
[2]
  IC50: 26 nM

## CCCCC1CN(S(=O)(=O)c2cn(C)cn2)CCC12CCN(C1(C)CCN(C(=O)c3c(C)ncnc3C)CC1)CC2 (configuration not stated)
[1]
  IC50: 27 nM
[2]
  IC50: 7 nM
[3]
  microsomal CLint: 96 µL/min/mg

## CCCCC1CN(C(=O)C2CCOCC2)CCC12CCN(C1(C)CCN(C(=O)c3c(C)cc(C#N)nc3C)CC1)CC2 (configuration not stated)
[1]
  IC50: 217 nM
[2]
  IC50: 170 nM

## CCCCC1CN(S(=O)(=O)N(C)C)CCC12CCN(C1(C)CCN(C(=O)c3c(C)ncnc3C)CC1)CC2 (configuration not stated)
[1]
  IC50: 60 nM
[2]
  IC50: 7 nM
[3]
  microsomal CLint: 207 µL/min/mg

## CCCCC1CN(S(=O)(=O)C2CCN(C(C)=O)CC2)CCC12CCN(C1(C)CCN(C(=O)c3c(C)ncnc3C)CC1)CC2 (configuration not stated)
[1]
  IC50: 78 nM
[2]
  IC50: 10 nM
[3]
  microsomal CLint: 70 µL/min/mg

## CCCCC1C(=O)N(Cc2ccc(F)cc2)CCC12CCN(C1(C)CCN(C(=O)c3c(C)ncnc3C)CC1)CC2 (configuration not stated)
[1]
  IC50: 19 nM
[2]
  IC50: 100 nM

## CCCCC1CN(S(=O)(=O)C2CCOCC2)CCC12CCN(C1(C)CCN(C(=O)c3c(C)ncnc3C)CC1)CC2 (configuration not stated)
[1]
  IC50: 22 nM
[2]
  IC50: 6 nM
[3]
  microsomal CLint: 280 µL/min/mg

## CCCC[C@H]1C(=O)N(C[C@H]2CC[C@H](OCC)CC2)CCC12CCN(C1(C)CCN(C(=O)c3c(C)ncnc3C)CC1)CC2
[4]
  IC50: 0.8 nM
  IC90: 4 nM

## CCCOC1CN(S(=O)(=O)C2CC2)CCC12CCN(C1(C)CCN(C(=O)c3c(C)ncnc3C)CC1)CC2 (configuration not stated)
[1]
  IC50: 80 nM
[2]
  IC50: 400 nM

## CCCCC1CN(S(=O)(=O)C2CCN(C=O)CC2)CCC12CCN(C1(C)CCN(C(=O)c3c(C)ncnc3C)CC1)CC2 (configuration not stated)
[1]
  IC50: 64 nM
[2]
  IC50: 14 nM
[3]
  microsomal CLint: 60 µL/min/mg

## CCCC[C@@H]1C(=O)N(C[C@H]2CC[C@H](OCC)CC2)CCC12CCN(C1(C)CCN(C(=O)c3c(C)ncnc3C)CC1)CC2
[4]
  IC50: 0.5 nM
  IC90: 3 nM

## CCCCC1C(=O)N(C[C@H]2CC[C@H](O)CC2)CCC12CCN(C1(C)CCN(C(=O)c3c(C)cc(C#N)nc3C)CC1)CC2 (some centres not stated)
[1]
  IC50: 31 nM
[2]
  IC50: < 2.5 nM

## CCCCC1CN(S(=O)(=O)c2ccccc2)CCC12CCN(C1(C)CCN(C(=O)c3c(C)ncnc3C)CC1)CC2 (configuration not stated)
[1]
  IC50: 19 nM
[2]
  IC50: < 1 nM
[3]
  microsomal CLint: 773 µL/min/mg

## CCCC[C@H]1CN(S(=O)(=O)CC(F)(F)F)CCC12CCN(C1(C)CCN(C(=O)c3c(C)ncnc3C)CC1)CC2
[1]
  IC50: 19 nM
[2]
  IC50: 3 nM
[3]
  microsomal CLint: 53 µL/min/mg

## CCCCC1C(=O)N(C[C@H]2CC[C@H](OCC)CC2)CCC12CCN(C1(C)CCN(C(=O)c3c(C)ncnc3C)CC1)CC2 (some centres not stated)
[1]
  IC50: 30 nM
[2]
  IC50: 5 nM
[5]
  IC50: > 50 µM
[6]
  IC50: > 50 µM
[7]
  IC50: > 50 µM
[8]
  IC50: > 50 µM
[9]
  IC50: > 50 µM
[10]
  IC50: > 50 µM
[11]
  IC20: 3000 nM
[12]
  Tmax: 1 h
[13]
  Cmax: 2.03 ng/mL
[14]
  half-life: 228 min
[15]
  t1/2: 4.19 h
[16]
  MRT: 2.65 h
[17]
  MRT: 4.33 h
[18]
  AUC: 334 ng·h/mL
[19]
  AUC: 910 ng·h/mL
[20]
  clearance: 24.1 mL/min/kg
[21]
  Vd: 4.71 L/kg
[22]
  bioavailability: 66%
[4]
  IC50: 1.4 nM
  IC90: 7.5 nM

## CCCCC1C(=O)N(CC2CCOCC2)CCC12CCN(C1(C)CCN(C(=O)c3c(C)ncnc3C)CC1)CC2 (configuration not stated)
[1]
  IC50: 30 nM
[2]
  IC50: 4 nM

## CCCC[C@H]1CN(C(=O)NC)CCC12CCN(C1(C)CCN(C(=O)c3c(C)ncnc3C)CC1)CC2
[1]
  IC50: 35 nM
[2]
  IC50: 4 nM
